Experimental data as given in patent publication US20260248157A1, “COMPOSITIONS FOR REDUCING METHANE EMISSION” (MOOTRAL INNOVATIONS LIMITED, priority 2022, published 2026).
Read-outs that look alike come from different tables or passages of the source.

Tested on: Methanococcus maripaludis
Assay: Inhibition of methane production by Methanococcus maripaludis culture (pressure drop after 24 h)
Assay type: cell-based
Conditions: for Fold increase of Compound X combined with bromoform as compared to Compound X alone: bromoform 0.12 μM; for inhibition at 25 µM: Compound X 25 μM alone; for inhibition at 100 µM: Compound X 100 μM alone
Description: For this experiment, bromoform was prepped at 100 mM by adding 8.75 μl bromoform to 991 μl DMSO. This was diluted 10× to generate a 10 mM solution and further diluted to generate 0.12 mM stock solutions. Compound X stock solutions were prepared in DMSO (except for tannic acid, which was diluted in deionized water), to achieve the desired stock solutions required for testing. The experiment was set up by adding 5 ml of M141 medium (https://www.dsmz.de/microorganisms/medium/pdf/DSMZ_Medium141.pdf) to a screw cap Hungate tube followed by the addition of 5 μl Compound X and/or 5 μl bromoform or 5/10 μl DMSO as follows: • Tube 1: DMSO (10 μl) • Tube 2: Bromoform (5 μl, 0.120 mM) (120 nM final)+5 μl DMSO • Tube 3: Compound X (5 μl stock solution)+5 μl DMSO • Tube 4: Bromoform (5 μl 0.120 mM) (120 nM final)+Compound X (5 μl stock solution)
The concentration of Bromoform was fixed at 0.12 μM.
After the addition of the test substances, 500 μl of an overnight M. maripaludis culture was added to each reaction tube. Each tube was gassed with 80% H2/20% CO2 to 240 kPa and incubated at 37° C. for 24 h.
After the 24 h incubation the pressure inside the tube was measured using a manometer. Given that 5 moles of H2/CO2 are consumed to generate 1 mole of CH4 the drop in pressure observed was used to calculate the amount of methane by the control and test reactions from which a percent inhibition was calculated.
Table 1 below summarises the range of concentrations and the fold increase in inhibition of Compound X when tested with bromoform relative to the level of inhibition for Compound X when tested alone.

[1] = Compound X 25 μM + bromoform 0.12 μM, 24 h
[2] = Methanococcus maripaludis, 24 h, read-out: Methane inhibition of Compound X as a sole compound (%)
[3] = Compound X 100 μM + bromoform 0.12 μM, 24 h
[4] = Compound X 1 mM + bromoform 0.12 μM, 24 h
[5] = Compound X 500 μM + bromoform 0.12 μM, 24 h

In the case of `CC(C)=CCc1cc2c(cc1O)O[C@H](c1ccc(O)cc1)CC2=O` [Bavachin], the “Methane inhibition in combination with Bromoform (%)” value [1] is reported as 57.4%, the “Fold increase of Compound X combined with bromoform as compared to Compound X alone” value (from here on “Fold increase of Compound X combined”) (Compound X 25 μM) is reported as 57.4 fold and the inhibition at 25 µM [2] is reported as 1%.

In the case of `CC(C)=CCc1c(O)ccc(C(=O)/C=C/c2ccc(O)cc2)c1O` [Isobavachalcone], the “Methane inhibition in combination with Bromoform (%)” value (Compound X 3.125 μM-6.25 μM (range tested) + bromoform 0.12 μM, 24 h) is reported as 93.4%, the “Fold increase of Compound X combined” value (Compound X 3.125 μM-6.25 μM (range tested)) is reported as 1.12 fold and the inhibition (Methanococcus maripaludis, Compound X 3.125 μM-6.25 μM (range tested) alone, 24 h, read-out: Methane inhibition of Compound X as a sole compound (%)) is reported as 83.4%.

In the case of `ClC(Br)Br` [Dibromochloromethane], the “Methane inhibition in combination with Bromoform (%)” value (Compound X 0.195 μM + bromoform 0.12 μM, 24 h) is reported as 92.2%, the “Fold increase of Compound X combined” value (Compound X 0.195 μM) is reported as 92.2 fold and the inhibition at 0.195 µM [2] is reported as 1%.

In the case of `O=C(OC[C@H]1O[C@@H](OC(=O)c2cc(O)c(O)c(OC(=O)c3cc(O)c(O)c(O)c3)c2)[C@H](OC(=O)c2cc(O)c(O)c(OC(=O)c3cc(O)c(O)c(O)c3)c2)[C@@H](OC(=O)c2cc(O)c(O)c(OC(=O)c3cc(O)c(O)c(O)c3)c2)[C@@H]1OC(=O)c1cc(O)c(O)c(OC(=O)c2cc(O)c(O)c(O)c2)c1)c1cc(O)c(O)c(OC(=O)c2cc(O)c(O)c(O)c2)c1` [Tannic acid], the “Methane inhibition in combination with Bromoform (%)” value [3] is reported as 56.1%, the “Fold increase of Compound X combined” value (Compound X 100 μM) is reported as 1.16 fold and the inhibition at 100 µM [2] is reported as 48.3%.

With `CSSC` [Dimethyl disulfide] the “Methane inhibition in combination with Bromoform (%)” value [4] was 43.5%, the “Fold increase of Compound X combined” value (Compound X 1 mM) was 43.5 fold and the inhibition at 1000 µM [2] was 1%.

In the case of `CC(C)=CCC[C@](C)(O[C@@H]1O[C@H](CO[C@@H]2OC[C@H](O)[C@H](O)[C@H]2O)[C@@H](O)[C@H](O)[C@H]1O)[C@H]1CC[C@]2(C)[C@@H]1[C@H](O)C[C@@H]1[C@@]3(C)CC[C@H](O[C@@H]4O[C@H](CO)[C@@H](O)[C@H](O)[C@H]4O[C@@H]4O[C@H](CO)[C@@H](O)[C@H](O)[C@H]4O)C(C)(C)[C@@H]3CC[C@]12C` [Ginsenoside Rb2], the “Methane inhibition in combination with Bromoform (%)” value (Compound X 20 μM + bromoform 0.12 μM, 24 h) is reported as 66.9%, the “Methane inhibition of Compound X as a sole compound (%)” value (shortened to “Methane inhibition of Compound X … (%)”) (Compound X 20 μM alone, 24 h) is reported as 44.7% and the “Fold increase of Compound X combined” value (Compound X 20 μM) is reported as 1.42 fold.

`C[C@H]1[C@H](C)CC[C@]2(C(=O)O)CC[C@]3(C)C(=CC[C@@H]4[C@@]5(C)CC[C@H](O)C(C)(C)[C@@H]5CC[C@]43C)[C@H]12` [Ursolic Acid] was tested, and the “Methane inhibition in combination with Bromoform (%)” value [3] was 85.2%, the “Fold increase of Compound X combined” value (Compound X 100 μM) was 85.2 fold and the inhibition at 100 µM [2] was 1%.

In the case of `O=C(O)C(Br)Br` [Dibromoacetic acid], the “Methane inhibition in combination with Bromoform (%)” value (Compound X 200 μM + bromoform 0.12 μM, 24 h) is reported as 88.1%, the “Fold increase of Compound X combined” value (Compound X 200 μM) is reported as 88.1 fold and the inhibition at 200 µM [2] is reported as 1%.

With `CC(C)=CCc1c(-c2ccc(O)cc2O)oc2c3c(cc(O)c2c1=O)OC(C)(C)C=C3` [Morusin] the “Methane inhibition in combination with Bromoform (%)” value (Compound X 1.25 μM-10 μM (range tested) + bromoform 0.12 μM, 24 h) was 96.7% and the “Fold increase of Compound X combined” value (Compound X 1.25 μM-10 μM (range tested)) was 2.16 fold.

With `C=C[C@](C)(O)CC[C@@H]1[C@@]2(C)CCCC(C)(C)[C@@H]2CC[C@@]1(C)O` [Sclareol] the “Methane inhibition in combination with Bromoform (%)” value [1] was 61.2%, the “Fold increase of Compound X combined” value (Compound X 25 μM) was 56 fold and the inhibition at 25 µM [2] was 1.1%.

`CC(C)=CCc1c(O)cc(O)c2c1O[C@H](c1ccc(O)cc1)CC2=O` [8-prenylnaringenin] was tested, and the “Methane inhibition in combination with Bromoform (%)” value (Compound X 12.5 μM + bromoform 0.12 μM, 24 h) was 97.2%, the “Fold increase of Compound X combined” value (Compound X 12.5 μM) was 1.27 fold and the inhibition at 12.5 µM (Methanococcus maripaludis, Compound X 12.5 μM alone, 24 h, read-out: Methane inhibition of Compound X as a sole compound (%)) was 76.4%.

In the case of `C[C@H]1O[C@@H](O[C@H]2CC[C@@]3(C)[C@@H](CC[C@]4(C)[C@@H]3C=CC3=C5CC(C)(C)CC[C@]5(CO)[C@H](O)C[C@]34C)[C@]2(C)CO)[C@H](O)[C@@H](O[C@@H]2O[C@H](CO)[C@@H](O)[C@H](O)[C@H]2O)[C@H]1O` [Saikosaponin b2], the “Methane inhibition in combination with Bromoform (%)” value (Compound X 10 μM + bromoform 0.12 μM, 24 h) is reported as 55.6%, the “Methane inhibition of Compound X … (%)” value (Compound X 10 μM alone, 24 h) is reported as 1% and the “Fold increase of Compound X combined” value (Compound X 10 μM) is reported as 55.6 fold.

In the case of `CC(C)=CCCC(C)=CC=O` [Citral], the “Methane inhibition in combination with Bromoform (%)” value [5] is reported as 96.7%, the “Fold increase of Compound X combined” value (Compound X 500 μM) is reported as 7.29 fold and the inhibition at 500 µM (Methanococcus maripaludis, Compound X 500 μM alone, 24 h, read-out: Methane inhibition of Compound X as a sole compound (%)) is reported as 13.3%.

Bavachinin was tested, and the “Methane inhibition in combination with Bromoform (%)” value (Compound X 12.5 μM-100 μM (range tested) + bromoform 0.12 μM, 24 h) was 97.2%, the “Methane inhibition of Compound X … (%)” value (Compound X 12.5 μM-100 μM (range tested) alone, 24 h) was 43% and the “Fold increase of Compound X combined” value (Compound X 12.5 μM-100 μM (range tested)) was 2.26 fold.

In the case of `Cc1ccc(C(C)C)cc1O` [Carvacrol], the “Methane inhibition in combination with Bromoform (%)” value [5] is reported as 79.6%, the “Fold increase of Compound X combined” value (Compound X 500 μM) is reported as 1.14 fold and the inhibition at 500 µM [2] is reported as 69.6%.

For `CC(C)=CCC/C(C)=C/Cc1cc(-c2coc3cc(O)ccc3c2=O)ccc1O` [Corylifol A], the “Methane inhibition in combination with Bromoform (%)” value (Compound X 3.125 μM + bromoform 0.12 μM, 24 h) was 96.1%, the “Methane inhibition of Compound X … (%)” value (Compound X 3.125 μM alone, 24 h) was 1% and the “Fold increase of Compound X combined” value (Compound X 3.125 μM) was 96.1 fold.

`O=CC=Cc1ccccc1` [Cinnamaldehyde] was tested, and the “Methane inhibition in combination with Bromoform (%)” value [4] was 91.7%, the “Fold increase of Compound X combined” value (Compound X 1 mM) was 91.7 fold and the inhibition at 1000 µM (Methanococcus maripaludis, Compound X 1 mM alone, 24 h, read-out: Methane inhibition of Compound X as a sole compound (%)) was 1%.

With `O=c1c(O)c(-c2ccc(O)c(O)c2)oc2cc(O)cc(O)c12` [Quercetin] the “Methane inhibition in combination with Bromoform (%)” value (Compound X 50 μM-100 μM (range tested) + bromoform 0.12 μM, 24 h) was 91.2% and the “Fold increase of Compound X combined” value (Compound X 50 μM-100 μM (range tested)) was 1.21 fold.

For `O=[N+]([O-])OCCCO` [3-Nitrooxypropanol], the “Methane inhibition in combination with Bromoform (%)” value (Compound X 0.78 μM-1.56 μM (range tested) + bromoform 0.12 μM, 24 h) was 91.3%, the “Fold increase of Compound X combined” value (Compound X 0.78 μM-1.56 μM (range tested)) was 91.3 fold and the inhibition (Methanococcus maripaludis, Compound X 0.78 μM-1.56 μM (range tested) alone, 24 h, read-out: Methane inhibition of Compound X as a sole compound (%)) was 1%.

With `COc1cc(O)c(CC=C(C)C)c(O)c1C(=O)/C=C/c1ccc(O)cc1` [Xanthohumol] the “Methane inhibition in combination with Bromoform (%)” value (Compound X 6.25 μM-12.5 μM (range tested) + bromoform 0.12 μM, 24 h) was 95.1%, the “Fold increase of Compound X combined” value (Compound X 6.25 μM-12.5 μM (range tested)) was 1.5 fold and the inhibition (Methanococcus maripaludis, Compound X 6.25 μM-12.5 μM (range tested) alone, 24 h, read-out: Methane inhibition of Compound X as a sole compound (%)) was 63.6%.
